Tests used:
[1] = system: LPS-induced neutrophil accumulation in BALF; assay: LPS-induced neutrophilia in the mouse: duration of action; assay type: in vivo; conditions: intra tracheal dosing, 12 or more hours of pre-dosing, BALF 8 h after LPS
Method: Non-fasted mice were dosed by the intra tracheal route with either vehicle, or the test substance at the time points (“pre-dose”) indicated with respect to the start of LPS treatment. At T=0, mice were placed into an exposure chamber and exposed to LPS. Eight hours after LPS challenge, animals were under anesthetized, the trachea cannulated and BALF extracted by infusing and withdrawing 1 ml of PBS into the lungs via a tracheal catheter. Total and differential white cell counts in the BALF samples were measured using a Neubaur haemocytometer. Cytospin smears of the BALF samples were prepared by centrifugation at 200 rpm for 5 min at room temperature and stained using a DiffQuik stain system (Dade Behring). Cells were counted using oil immersion microscopy.
Data for neutrophil numbers is reported as total and differential number (test substance relative to vehicle) of cells per mL of BALF, mean±S.E.M. (n=8).

[2] = system: differentiated U937 cells; assay: MTT assay in differentiated U937 cells; assay type: cell-based, human; set-up: key: Negative: no significant toxic effect observed in MTT assay
Method: Differentiated U937 cells were pre-incubated with compound for 4 hrs in 5% FCS or 10% FCS for 24 hrs and 72 hr. […] After 1 hr incubation, the media were removed, 200 ul of DMSO added to each well and the plates were shaken lightly for 1 h prior to reading the absorbance at 550 nm. The percentage loss of cell viability was calculated for each well relative to vehicle (0.5% DMSO)-treatment. Consequently an apparent increase in cell viability for drug treatment relative to vehicle is tabulated as a negative percentage.

In the case of `COCC(=O)Nc1cc(COc2ccc(NC(=O)Nc3cc(C(C)(C)C)nn3-c3ccc(C)cc3)c3ccccc23)ccn1` [Example 1, N-(4-((4-(3-(3-tert-Butyl-1-p-tolyl-1H-pyrazol-5-yl)ureido)naphthalen-1-yloxy)methyl)pyridin-2-yl)-2-methoxyacetamide], the “inhibition of LPS-induced neutrophil accumulation” value [1] is reported as “significant inhibition” and the “Differentiated U937 cells MTT Assay 4, 24 h (10 μg/ml)” value [2] is reported as “Negative^2”.

— patent US8975285B2, “P38 MAP kinase inhibitors” (Respivert Ltd., priority 2008, dated 2015)
